Assay: Mouse pharmacokinetics assay (IV and PO)
Assay type: in vivo, CD-1 mice
Settings: mice

bioavailability (female, CD-1, mouse, in vivo, PO 5 mg/kg, IV 1 mg/kg, read-out: F, bioavailability): 94%
C0, initial serum concentration at t = 0 (IV 1 mg/kg): 4.9 µM
Vss, volume of distribution at steady state (IV 1 mg/kg): 0.37 L/kg
Cmax (PO 5 mg/kg, read-out: Cmax, peak serum concentration): 16.9 µM
DNAUC0-inf, dose-normalized area under the plasma concentration vs time curve (following PO dosing 5 mg/kg): >54.3 µM·h
Compound: CCCNC(=O)N1[C@H](C#N)[C@H](c2ccc(-c3ccc(C(F)(F)F)c(C(F)(F)F)c3)cc2)[C@H]1CO [Compound 27]
